# Experimental data from publication PMC4666649, “The Influence of the 1-(3-Trifluoromethyl-Benzyl)-1H-Pyrazole-4-yl Moiety on the Adenosine Receptors Affinity Profile of Pyrazolo[4,3-e][1,2,4]Triazolo[1,5-c]Pyrimidine Derivatives” (PLoS ONE, 2015).
# Structures can show the parent of a compound that is named as a salt. Where two headings read alike, the source gives them in different places.
# Columns and labels:
# [1] = molecular target: T1, hA3 AR (Homo sapiens, UniProt P0DMS8); assay: Radioligand binding at human A3 ARs, displacement of [3H]HEMADO, membranes of transfected CHO cells; settings: for Ki, hA1/hA3 (selectivity) / Ki, hA2a/hA3 (selectivity) / Ki, hA2b/hA3 (selectivity): ratio of Ki values, for reference compounds from literature affinities (Borea et al. unless otherwise indicated)
# T1 construct: expressed in transfected cells; host or cells: CHO cells, stably transfected
# T1 sequence (P0DMS8 1-318): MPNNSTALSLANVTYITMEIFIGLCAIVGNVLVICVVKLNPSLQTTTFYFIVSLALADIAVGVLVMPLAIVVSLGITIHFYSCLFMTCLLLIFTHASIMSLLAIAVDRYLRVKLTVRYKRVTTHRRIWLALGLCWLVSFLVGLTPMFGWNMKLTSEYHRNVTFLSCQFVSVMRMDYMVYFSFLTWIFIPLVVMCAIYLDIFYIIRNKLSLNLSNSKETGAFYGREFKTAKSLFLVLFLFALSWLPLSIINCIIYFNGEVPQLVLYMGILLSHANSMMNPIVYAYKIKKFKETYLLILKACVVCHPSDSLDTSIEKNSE
# [2] = molecular target: T1, hA3 AR; settings: cited from earlier work; for Ki: reference xanthines
# [3] = molecular target: T2, hA2B AR (Homo sapiens, UniProt P29275); assay: Inhibition of NECA-stimulated adenylyl cyclase activity in CHO cells expressing hA2B ARs; format: biochemical
# T2 construct: expressed in transfected cells; host or cells: CHO cells, stably transfected
# T2 sequence (P29275 1-332): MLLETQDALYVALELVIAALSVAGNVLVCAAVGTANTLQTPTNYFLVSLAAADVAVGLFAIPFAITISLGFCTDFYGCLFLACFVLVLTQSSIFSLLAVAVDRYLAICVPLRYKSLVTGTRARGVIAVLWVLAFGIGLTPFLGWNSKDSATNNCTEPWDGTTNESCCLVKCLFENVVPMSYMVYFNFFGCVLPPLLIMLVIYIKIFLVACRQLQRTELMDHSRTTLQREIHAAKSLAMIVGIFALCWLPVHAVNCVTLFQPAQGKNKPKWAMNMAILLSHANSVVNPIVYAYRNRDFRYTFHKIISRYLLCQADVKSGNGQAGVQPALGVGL
# [4] = molecular target: T3, hA1 AR (Homo sapiens, UniProt P30542); assay: Radioligand binding at human A1 ARs, displacement of [3H]CCPA, membranes of transfected CHO cells
# T3 sequence (P30542 1-326): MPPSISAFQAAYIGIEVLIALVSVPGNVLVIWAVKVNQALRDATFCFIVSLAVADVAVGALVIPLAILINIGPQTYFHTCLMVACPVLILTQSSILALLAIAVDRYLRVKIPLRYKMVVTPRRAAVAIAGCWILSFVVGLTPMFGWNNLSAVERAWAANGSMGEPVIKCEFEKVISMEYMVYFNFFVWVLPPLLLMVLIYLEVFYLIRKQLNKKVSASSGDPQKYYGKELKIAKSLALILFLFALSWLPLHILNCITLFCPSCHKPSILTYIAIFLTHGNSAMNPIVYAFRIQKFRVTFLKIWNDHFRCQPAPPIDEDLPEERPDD
# [5] = molecular target: T4, hA2A AR (Homo sapiens, UniProt P29274); assay: Radioligand binding at human A2A ARs, displacement of [3H]NECA, membranes of transfected CHO cells
# T4 construct: expressed in transfected cells; host or cells: CHO cells, stably transfected
# T4 sequence (P29274 whole entry): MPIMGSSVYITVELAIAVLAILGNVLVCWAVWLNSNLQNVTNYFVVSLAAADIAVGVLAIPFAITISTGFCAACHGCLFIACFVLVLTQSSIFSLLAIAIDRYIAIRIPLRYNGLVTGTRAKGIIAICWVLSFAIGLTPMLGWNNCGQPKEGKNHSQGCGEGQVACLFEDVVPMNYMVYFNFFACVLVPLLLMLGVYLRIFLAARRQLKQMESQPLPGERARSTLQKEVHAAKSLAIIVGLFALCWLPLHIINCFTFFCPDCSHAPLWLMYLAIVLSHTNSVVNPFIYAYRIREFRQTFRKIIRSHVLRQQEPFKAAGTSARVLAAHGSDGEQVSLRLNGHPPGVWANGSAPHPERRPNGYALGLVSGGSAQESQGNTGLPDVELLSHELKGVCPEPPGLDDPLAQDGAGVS
# [6] = molecular target: T4, hA2A AR; settings: reference xanthines; cited from earlier work
# [7] = displacement of specific [3H]-HEMADO binding, CHO cells, geometric means with 95% confidence limits, read-out: hA3 AR (Ki nM)
# [8] = displacement of specific [3H]-CCPA binding, CHO cells, n = 3–6, geometric means with 95% confidence limits, read-out: hA1 AR (Ki nM)
# [9] = displacement of specific [3H]-NECA binding, CHO cells, geometric means with 95% confidence limits, read-out: hA2A AR (Ki nM)
# [10] = competition for [3H]HEMADO, total binding, single experiment (S1 Fig), read-out: Ki, hA3 AR, representative single experiment
"Ki, hA1/hA3 (selectivity) [1]","Ki, hA2a/hA3 (selectivity) [1]","Ki [1, 7] [nM]",melting point [°C],Ki [3] [nM],"Ki [4, 8] [nM]","Ki [5, 9] [nM]",Structure (SMILES),"Ki, hA2b/hA3 (selectivity) [1]",also measured
–,–,138,–,> 10000,25500,> 100000,"Cn1cc2c(nc(NC(=O)c3ccccc3)n3nc(-c4cnn(Cc5cccc(C(F)(F)F)c5)c4)nc23)n1 [compound 5, N-{8-Methyl-2-[1-(3-trifluoromethyl-benzyl)-1H-pyrazol-4-yl]-8H-pyrazolo[4,3-e][1,2,4]triazolo[1,5-c]pyrimidin-5-yl}-benzamide]",–,–
–,–,53,178,> 10000,4390,20500,COc1ccc(CC(=O)Nc2nc3nn(C)cc3c3nc(-c4cnn(Cc5cccc(C(F)(F)F)c5)c4)nn23)cc1 [compound 7],–,–
3,4,–,–,–,–,–,"CCCn1c(=O)c2[nH]c(-c3cnn(Cc4cccc(C(F)(F)F)c4)c3)nc2n(CCC)c1=O [compound 33, reference compound]",–,Ki [2]: 56 nM; Ki [6]: 230 nM
1,3,–,–,–,–,–,"CCCn1c(=O)c2[nH]c(-c3cnn(Cc4cccc(F)c4)c3)nc2n(CCC)c1=O [compound 36, reference compound]",–,Ki [2]: 150 nM; Ki [6]: 400 nM

# Continued, molecule first:
Structure (SMILES),"Ki, hA1/hA3 (selectivity) [1]","Ki, hA2a/hA3 (selectivity) [1]","Ki [1, 7] [nM]",melting point [°C],Ki [3] [nM],"Ki [4, 8] [nM]","Ki [5, 9] [nM]","Ki, hA2b/hA3 (selectivity) [1]",also measured
"Cn1cc2c(nc(NC(=O)Nc3ccncc3)n3nc(-c4ccco4)nc23)n1 [MRE3005F20 (HCl), reference compound]",35000,10000,–,–,–,–,–,25000,–
"CCCCC#Cc1nc(NC)c2ncn([C@@H]3O[C@H](CO)[C@@H](O)[C@H]3O)c2n1 [[^3H]HEMADO, [^3H]2-(1-Hexynyl)-N-methyladenosine]",–,–,–,–,–,–,–,–,"Kd ([2]; radioligand used at 1 nM, read-out: KD of radioligand at A3 AR): 1.1 nM"
"Cn1c(=O)c2[nH]c(-c3cnn(Cc4cccc(C(F)(F)F)c4)c3)nc2n(C)c1=O [compound 1, 8-(1-(3-(trifluoromethyl)benzyl)-1H-pyrazol-4-yl)-1,3-dimethyl-1H-purine-2,6(3H,7H)-dione, reference compound]",1,1,–,–,–,–,–,–,–
"Cn1cc2c(nc(N)n3nc(-c4cnn(Cc5cccc(C(F)(F)F)c5)c4)nc23)n1 [compound 3, 8-methyl-2-[1-(3-trifluoromethyl-benzyl)-1H-pyrazol-4-yl]-8H-pyrazolo[4,3-e][1,2,4]triazolo[1,5-c]pyrimidin-5-ylamine]",–,4,2360,125,> 10000,703,8280,4,"hA3 AR (Ki nM) ([1]; displacement of specific [3H]-HEMADO binding, CHO cells, geometric means with 95% confidence limits): almost inactive; hA2B AR (Ki nM) [3]: almost inactive; Ki ([4]; competition with [3H]CCPA, total binding, single experiment (S2 Fig), read-out: Ki, hA1 AR, representative single experiment): 764 nM; hA1 AR (Ki nM) ([4]; displacement of specific [3H]-CCPA binding, CHO cells, n = 3–6, geometric means with 95% confidence limits): almost inactive; Ki ([5]; competition with [3H]NECA, total binding, single experiment (S3 Fig), read-out: Ki, hA2A AR, representative single experiment): 6820 nM; hA2A AR (Ki nM) ([5]; displacement of specific [3H]-NECA binding, CHO cells, geometric means with 95% confidence limits): almost inactive"
"Cn1cc2c(nc(NC(=O)Nc3ccccc3)n3nc(-c4cnn(Cc5cccc(C(F)(F)F)c5)c4)nc23)n1 [compound 4, 1-{8-Methyl-2-[1-(3-trifluoromethyl-benzyl)-1H-pyrazol-4-yl]-8H-pyrazolo[4,3-e][1,2,4]triazolo [1,5-c]pyrimidin-5-yl}-3-phenylurea]",–,–,46.7,–,> 10000,3890,2460,–,"Ki [1, 10]: 39 nM"
"Cn1cc2c(nc(NC(=O)Cc3ccccc3)n3nc(-c4cnn(Cc5cccc(C(F)(F)F)c5)c4)nc23)n1 [compound 6, N-{8-Methyl-2-[1-(3-trifluoromethyl-benzyl)-1H-pyrazol-4-yl]-8H-pyrazolo[4,3-e][1,2,4]triazolo[1,5-c]pyrimidin-5-yl}-phenyl-acetamide]",–,> 9091,11,190,> 10000,> 100000,> 100000,> 909,"Ki [1, 10]: 17 nM"
